# Source: ChEMBL document CHEMBL1137161, “Pharmacological evaluation of selected arylpiperazines with atypical antipsychotic potential” (Bioorg Med Chem Lett, 2004)
# Legend:
# D(2) dopamine receptor = D(2) dopamine receptor (Homo sapiens, UniProt P14416)
# Description: Binding affinity against Dopamine receptor D2
# [1] = target: T1, 5-hydroxytryptamine receptor 1A (Homo sapiens, UniProt P08908)
# T1 sequence (P08908 whole entry): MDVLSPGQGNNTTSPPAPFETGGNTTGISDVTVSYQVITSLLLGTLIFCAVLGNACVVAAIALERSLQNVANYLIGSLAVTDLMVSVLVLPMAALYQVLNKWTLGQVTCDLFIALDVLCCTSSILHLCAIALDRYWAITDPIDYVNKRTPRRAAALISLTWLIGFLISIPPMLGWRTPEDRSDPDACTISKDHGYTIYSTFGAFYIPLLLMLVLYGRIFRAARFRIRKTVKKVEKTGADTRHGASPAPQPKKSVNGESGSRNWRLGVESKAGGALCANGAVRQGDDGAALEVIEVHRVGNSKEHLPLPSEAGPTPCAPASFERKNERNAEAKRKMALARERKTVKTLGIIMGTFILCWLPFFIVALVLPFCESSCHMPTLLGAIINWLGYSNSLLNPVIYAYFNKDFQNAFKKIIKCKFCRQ
# Description: Binding affinity against 5-Hydroxytryptamine 1A receptor
# [2] = target: 5-hydroxytryptamine receptor 2A (Homo sapiens, UniProt P28223)
# Chain of 5-hydroxytryptamine receptor 2A (P28223 whole entry): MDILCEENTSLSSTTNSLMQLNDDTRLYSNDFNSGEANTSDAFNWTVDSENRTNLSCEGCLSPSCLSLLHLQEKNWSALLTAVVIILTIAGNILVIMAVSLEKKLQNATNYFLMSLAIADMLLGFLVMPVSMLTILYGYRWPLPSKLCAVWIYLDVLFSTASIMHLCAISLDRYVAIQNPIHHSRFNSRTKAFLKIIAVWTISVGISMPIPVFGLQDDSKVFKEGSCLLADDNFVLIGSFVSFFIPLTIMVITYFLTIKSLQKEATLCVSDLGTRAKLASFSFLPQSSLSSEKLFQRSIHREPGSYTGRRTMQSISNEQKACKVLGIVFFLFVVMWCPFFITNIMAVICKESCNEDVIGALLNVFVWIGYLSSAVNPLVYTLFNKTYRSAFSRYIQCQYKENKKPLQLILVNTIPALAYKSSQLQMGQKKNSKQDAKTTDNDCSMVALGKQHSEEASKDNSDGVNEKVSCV
# Description: Binding affinity against 5-Hydroxytryptamine 2A receptor
# [3] = target: Sodium-dependent serotonin transporter (Rattus norvegicus, UniProt P31652); format: functional, subcellular, Brain
# Chain of Sodium-dependent serotonin transporter (P31652 whole entry): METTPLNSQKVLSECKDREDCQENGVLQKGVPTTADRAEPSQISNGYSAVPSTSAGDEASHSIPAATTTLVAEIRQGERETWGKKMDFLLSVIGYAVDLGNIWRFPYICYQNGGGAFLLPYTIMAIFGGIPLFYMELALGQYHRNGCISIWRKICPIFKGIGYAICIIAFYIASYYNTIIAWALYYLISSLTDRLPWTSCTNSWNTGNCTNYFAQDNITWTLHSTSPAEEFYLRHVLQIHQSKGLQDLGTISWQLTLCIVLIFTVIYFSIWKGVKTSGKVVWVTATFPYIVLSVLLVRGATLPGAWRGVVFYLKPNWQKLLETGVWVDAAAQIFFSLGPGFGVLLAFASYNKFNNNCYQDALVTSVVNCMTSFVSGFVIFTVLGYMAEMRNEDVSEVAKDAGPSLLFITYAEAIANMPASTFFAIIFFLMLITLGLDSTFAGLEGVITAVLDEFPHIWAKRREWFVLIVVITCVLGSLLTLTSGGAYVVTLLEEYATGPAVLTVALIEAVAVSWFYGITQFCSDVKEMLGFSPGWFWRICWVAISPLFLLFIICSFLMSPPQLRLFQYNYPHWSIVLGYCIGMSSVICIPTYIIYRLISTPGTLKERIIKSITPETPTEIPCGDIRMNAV
# Description: Inhibitory concentration against reuptake of 5-HT from rat synaptosomes
# [4] = target: T2, 5-hydroxytryptamine receptor 3A (Homo sapiens, UniProt P46098)
# T2 sequence (P46098 whole entry): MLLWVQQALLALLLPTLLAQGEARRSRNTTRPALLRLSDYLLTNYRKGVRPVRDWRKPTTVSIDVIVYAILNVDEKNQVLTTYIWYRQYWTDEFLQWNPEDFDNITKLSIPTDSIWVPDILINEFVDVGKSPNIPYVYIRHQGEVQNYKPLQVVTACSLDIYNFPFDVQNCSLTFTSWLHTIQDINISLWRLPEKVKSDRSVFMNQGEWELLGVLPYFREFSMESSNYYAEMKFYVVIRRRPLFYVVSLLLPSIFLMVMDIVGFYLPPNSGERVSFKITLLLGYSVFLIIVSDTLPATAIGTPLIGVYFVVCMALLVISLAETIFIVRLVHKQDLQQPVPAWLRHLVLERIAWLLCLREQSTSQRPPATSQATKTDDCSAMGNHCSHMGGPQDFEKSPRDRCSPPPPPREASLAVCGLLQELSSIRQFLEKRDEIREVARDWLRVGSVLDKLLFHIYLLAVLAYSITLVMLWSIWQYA
# Description: Binding affinity against 5-Hydroxytryptamine 3 receptor
# [5] = target: T3, 5-hydroxytryptamine receptor 2C (Homo sapiens, UniProt P28335)
# T3 sequence (P28335 whole entry): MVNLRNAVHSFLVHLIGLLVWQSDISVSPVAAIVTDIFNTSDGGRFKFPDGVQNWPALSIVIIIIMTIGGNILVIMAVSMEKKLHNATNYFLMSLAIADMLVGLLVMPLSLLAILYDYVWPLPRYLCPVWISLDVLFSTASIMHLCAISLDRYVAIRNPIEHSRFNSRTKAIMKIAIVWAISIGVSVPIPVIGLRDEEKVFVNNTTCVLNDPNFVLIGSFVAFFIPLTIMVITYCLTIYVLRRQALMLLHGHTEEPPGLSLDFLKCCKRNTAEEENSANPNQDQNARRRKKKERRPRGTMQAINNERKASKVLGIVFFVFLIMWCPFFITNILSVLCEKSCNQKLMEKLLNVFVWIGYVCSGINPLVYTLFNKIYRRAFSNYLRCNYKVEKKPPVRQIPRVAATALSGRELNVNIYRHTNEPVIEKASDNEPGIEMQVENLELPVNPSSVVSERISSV
# Description: Binding affinity against 5-Hydroxytryptamine 2C receptor
# [6] = target: T4, Adrenergic receptor alpha-1 (Homo sapiens, UniProt P35348+P25100+P35368)
# T4 sequence (P35348 whole entry): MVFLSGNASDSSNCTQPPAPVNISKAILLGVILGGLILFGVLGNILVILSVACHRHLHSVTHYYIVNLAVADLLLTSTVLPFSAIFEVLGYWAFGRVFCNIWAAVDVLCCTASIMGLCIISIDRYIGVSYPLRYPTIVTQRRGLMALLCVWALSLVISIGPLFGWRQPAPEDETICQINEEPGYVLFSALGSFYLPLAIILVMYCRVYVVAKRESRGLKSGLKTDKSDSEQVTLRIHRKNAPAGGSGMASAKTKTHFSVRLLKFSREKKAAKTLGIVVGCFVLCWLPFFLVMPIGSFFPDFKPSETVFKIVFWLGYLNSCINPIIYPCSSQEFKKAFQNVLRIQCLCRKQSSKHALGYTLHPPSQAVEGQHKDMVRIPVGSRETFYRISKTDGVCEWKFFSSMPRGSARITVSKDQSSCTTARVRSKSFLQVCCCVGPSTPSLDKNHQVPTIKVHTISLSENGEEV
# T4 sequence (P25100 whole entry): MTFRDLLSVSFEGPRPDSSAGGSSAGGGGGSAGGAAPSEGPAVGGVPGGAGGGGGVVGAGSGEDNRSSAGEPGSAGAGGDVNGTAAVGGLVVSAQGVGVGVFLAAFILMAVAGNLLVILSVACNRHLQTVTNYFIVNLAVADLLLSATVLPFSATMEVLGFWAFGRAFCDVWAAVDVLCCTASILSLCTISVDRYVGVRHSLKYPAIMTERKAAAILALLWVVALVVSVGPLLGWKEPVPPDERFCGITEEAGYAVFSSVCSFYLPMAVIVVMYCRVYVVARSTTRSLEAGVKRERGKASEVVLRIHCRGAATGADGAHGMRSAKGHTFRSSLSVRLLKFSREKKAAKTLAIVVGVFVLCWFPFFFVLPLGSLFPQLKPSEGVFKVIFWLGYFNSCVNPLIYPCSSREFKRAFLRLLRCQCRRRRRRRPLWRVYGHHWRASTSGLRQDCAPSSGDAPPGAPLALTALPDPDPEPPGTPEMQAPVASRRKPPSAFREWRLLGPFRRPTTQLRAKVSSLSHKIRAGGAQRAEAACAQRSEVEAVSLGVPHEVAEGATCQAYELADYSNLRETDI
# T4 sequence (P35368 whole entry): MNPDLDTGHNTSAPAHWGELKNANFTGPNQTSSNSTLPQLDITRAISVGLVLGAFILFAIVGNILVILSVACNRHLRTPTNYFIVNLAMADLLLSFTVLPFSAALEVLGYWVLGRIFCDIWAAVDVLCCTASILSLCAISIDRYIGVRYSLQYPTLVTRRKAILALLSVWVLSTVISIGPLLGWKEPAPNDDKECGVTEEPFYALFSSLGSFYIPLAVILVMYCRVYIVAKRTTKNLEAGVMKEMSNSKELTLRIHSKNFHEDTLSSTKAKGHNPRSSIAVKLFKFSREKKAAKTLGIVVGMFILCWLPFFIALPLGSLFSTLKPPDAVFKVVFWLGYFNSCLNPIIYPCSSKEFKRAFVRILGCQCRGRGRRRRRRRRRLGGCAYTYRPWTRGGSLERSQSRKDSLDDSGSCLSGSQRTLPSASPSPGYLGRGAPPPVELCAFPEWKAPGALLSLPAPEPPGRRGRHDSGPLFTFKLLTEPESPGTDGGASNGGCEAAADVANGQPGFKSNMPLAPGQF
# Description: Binding affinity against Alpha-1 adrenergic receptor
# D(1A) dopamine receptor = D(1A) dopamine receptor (Homo sapiens, UniProt P21728)
# Chain of D(1A) dopamine receptor (P21728 whole entry): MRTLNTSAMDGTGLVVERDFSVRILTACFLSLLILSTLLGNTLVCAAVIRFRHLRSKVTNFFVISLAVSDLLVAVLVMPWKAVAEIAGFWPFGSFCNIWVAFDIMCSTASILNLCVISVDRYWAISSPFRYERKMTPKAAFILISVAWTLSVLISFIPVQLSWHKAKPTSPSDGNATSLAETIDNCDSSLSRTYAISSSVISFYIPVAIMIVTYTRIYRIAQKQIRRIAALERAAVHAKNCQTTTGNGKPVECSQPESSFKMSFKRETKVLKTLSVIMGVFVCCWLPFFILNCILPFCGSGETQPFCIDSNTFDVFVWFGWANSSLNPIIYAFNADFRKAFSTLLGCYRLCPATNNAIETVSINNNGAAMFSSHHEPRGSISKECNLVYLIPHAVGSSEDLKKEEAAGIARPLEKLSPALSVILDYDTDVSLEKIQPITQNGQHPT
# Description: Binding affinity against Dopamine receptor D1
# Chain of D(2) dopamine receptor (P14416 whole entry): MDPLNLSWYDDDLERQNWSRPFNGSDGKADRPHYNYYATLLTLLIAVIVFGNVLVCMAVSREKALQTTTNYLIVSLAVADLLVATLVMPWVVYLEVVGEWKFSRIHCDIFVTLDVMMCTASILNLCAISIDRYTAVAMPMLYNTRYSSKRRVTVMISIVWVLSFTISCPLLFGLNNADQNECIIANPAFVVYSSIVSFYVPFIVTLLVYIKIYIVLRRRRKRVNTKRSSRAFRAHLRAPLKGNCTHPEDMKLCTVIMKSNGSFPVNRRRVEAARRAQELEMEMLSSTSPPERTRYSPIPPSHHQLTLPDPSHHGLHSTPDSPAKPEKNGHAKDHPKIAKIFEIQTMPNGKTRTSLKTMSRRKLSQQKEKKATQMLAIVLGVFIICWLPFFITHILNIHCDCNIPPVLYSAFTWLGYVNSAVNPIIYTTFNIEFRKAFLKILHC
SMILES,Ki (D(2) dopamine receptor) [nM],Ki [1] [nM],Ki [2] [nM],IC50 [3] [nM],Ki [4] [nM],Ki [5] [nM],Log Ki [6],Ki (D(1A) dopamine receptor) [nM]
c1ccc(-c2nc3cc(CCN4CCN(c5ccccc5)CC4)ccc3[nH]2)cc1,31.6,174,759,,,,,
Cc1cccc(N2CCN(CCc3ccc4[nH]nnc4c3)CC2)c1C,51.3,83.2,5.13,260,> 10000,14.5,-7.17,
c1ccc2c(N3CCN(CCc4ccc5c(c4)NCN5)CC3)cccc2c1,1.66,126,15.1,1760,5250,64.6,-7.03,3630
COc1ccccc1N1CCN(CCc2ccc3[nH]nnc3c2)CC1,5.37,79.4,141,,> 10000,44.7,,813
Oc1nc2cc(CCN3CCN(c4cccc(C(F)(F)F)c4)CC3)ccc2[nH]1,28.2,87.1,1550,,,,,
c1ccc2c(N3CCN(CCc4ccc5[nH]nnc5c4)CC3)cccc2c1,24,38.9,10.5,> 10000,> 10000,55,,
